Measured values: patent publication US20100323990A1, “SHIP 1 MODULATOR PRODRUGS” (THE UNIVERSITY OF BRITISH COLUMBIA, priority 2006, published 2010)
Blank lines part the entries; values can stand above or below the compound they belong to.

Assays:
[1] = tested on: SHIP−/− bone marrow derived macrophages; experiment: LPS-stimulated TNFα production in SHIP−/− bone marrow derived macrophages; type: cell-based, mice; conditions: SHIP−/− cells, 15 μM, 10 ng/mL LPS 2 h
Protocol: (§1) Bone marrow cells were aspirated from 4 to 8 week old C57B16×129Sv mixed background mice and SHIP^+/+ and SHIP^−/− mast cells prepared as described previously. Bone marrow derived macrophages from SHIP^+/+ and SHIP^−/− mice were obtained and maintained in IMDM supplemented with 10% FCS, 150 μM MTG, 2% C127 cell conditioned medium as a source of macrophage colony stimulating factor (M-CSF) (macrophage medium)
LPS stimulation of macrophages. For the analysis of LPS-stimulated TNFα production, 2×10^5 cells were plated the night before in 24 well plates in macrophage medium. The next day, the medium was changed and AQX-016A or carrier was added to cells at the indicated concentrations for 30 min prior to the addition of 10 ng/mL LPS. Supernatants were collected for TNFα determination by ELISA (BD Biosciences, Mississauga, ON, Canada). For analysis of intracellular signaling, 2×10^6 cells were plated the night before in 6 cm tissue culture plates. […] Calcium influx was monitored by spectrofluorometry. […] Total cell lysates were then prepared and analyzed for phospho-PKB, phospho-p38^MAPK, phospho-MAPK, Grb-2 (Cell Signalling, Mississauga, Ont) and SHIP^6 by immunoblot analysis.
The target specificity and biological efficacy of AQX-016A were assessed by comparing AQX-016A's effects on PI3K-regulated processes in primary SHIP^+/+ vs SHIP^−/− macrophages and mast cells. […]

[2] = tested on: SHIP+/+ bone marrow derived macrophages; experiment: LPS-stimulated TNFα production in SHIP+/+ bone marrow derived macrophages; type: cell-based, mice; conditions: SHIP+/+ cells, 15 μM, 10 ng/mL LPS 2 h
Protocol: as §1
LPS stimulation of macrophages. For the analysis of LPS-stimulated TNFα production, 2×10^5 cells were plated the night before in 24 well plates in macrophage medium. The next day, the medium was changed and AQX-016A or carrier was added to cells at the indicated concentrations for 30 min prior to the addition of 10 ng/mL LPS. Supernatants were collected for TNFα determination by ELISA (BD Biosciences, Mississauga, ON, Canada). For analysis of intracellular signaling, 2×10^6 cells were plated the night before in 6 cm tissue culture plates. The next day, the cells were cultured in macrophage medium without M-CSF for 1 hr at 37° C. and then pretreated with AQX-016A or carrier for 30 min prior to the addition of 10 ng/mL LPS for 15 min. Cells were washed with 4° C. PBS and resuspended in lysis buffer (50 mM Hepes, 2 mM EDTA, 1 mM NaVO4, 100 mM NaF, 50 mM NaPPi and 1% NP40) supplemented with Complete Protease Inhibitor Cocktail (Roche, Montreal, Canada). Lysates were rocked at 4° C. for 30 min and clarified by centrifuging 20 min at 12000×g. Lysates were then made 1× in Laemmli's buffer, boiled 2 min and loaded onto 7.5% SDS polyacrylamide […]. Immunoblot analysis for phospho PKB (Cell Signalling, Mississauga, Ont), SHIP and actin (Santa Cruz, Santa Cruz, Calif.) were carried out as described previously. Stimulation of mast cells by FcεRI crosslinking. Mast cells were pre-loaded overnight in BMMC medium lacking IL-3 with 0.1 μg/ml anti-DNP IgE (SPE-7, Sigma, Oakville, Ont). For calcium flux measurements, cells were incubated with 2 μM fura 2-acetoxymethyl ester (Molecular Probes, Eugene, Oreg.) in Tyrode's buffer at 23° C. for 45 min. Cells were then washed and incubated in the presence of vehicle control, LY294002 or AQX-016A 30 min prior to stimulation with the indicated concentration of DNP-human serum albumin (DNP-HSA). Calcium influx was monitored by spectrofluorometry. For analysis of intracellular signaling, cells were pre-loaded with anti-DNP IgE as above, pre-treated with AQX-016A or buffer control for 30 min at 37° C. and stimulated with 20 ng/ml DNP-HSA for 5 min. Total cell lysates were then prepared and analyzed for phospho-PKB, phospho-p38^MAPK, phospho-MAPK, Grb-2 (Cell Signalling, Mississauga, Ont) and SHIP^6 by immunoblot analysis.
The target specificity and biological efficacy of AQX-016A were assessed by comparing AQX-016A's effects on PI3K-regulated processes in primary SHIP^+/+ vs SHIP^−/− macrophages and mast cells. […] LPS stimulation of macrophages is associated with a PIP3-dependent release of pro-inflammatory mediators such as TNFα. The action of AQX-016A on SHIP^+/+ vs SHIP^−/− bone marrow derived macrophages was examined. Cells were pretreated for 30 min with AQX-016A prior to stimulation with 10 ng/mL of LPS for 2 h. AQX-016A was able to suppress TNFα production in SHIP^+/+ cells by 30% at 3 μM and 50% at 15 μM (FIG. 8A). […] Activation of mast cells via IgE+ antigen crosslinking of their IgE receptors results in elevation of intracellular calcium levels.

SHIP enzyme = experiment: In vitro SHIP enzyme assay (Assay 1), phosphate release by Malachite Green; type: biochemical; conditions: PI-3,4-P2 20 μM, Compound 100 3 μM, 30 μM IP4
Protocol: (§2) Assay 1) In vitro testing in a SHIP enzyme assay. Test compounds were dissolved in a suitable solvent (e.g. EtOH, DMSO and others) and diluted into aqueous buffer (20 mM Tris HCl, pH 7.5 and 10 mM MgCl2). SHIP enzyme assays were performed in 96-well microtitre plates with 10 ng of enzyme/well in a total volume of 25 μL of 20 mM Tris HCl, pH 7.5 and 10 mM MgCl2. SHIP enzyme was incubated with test extracts (provided in solvent) or vehicle for 15 min at 23° C. before the addition of 100 μM inositol-1,3,4,5-tetrakisphosphate (Echelon Biosciences Inc, Salt Lake City, Utah). After 20 min at 37° C. and the amount of inorganic phosphate released assessed by the addition of Malachite Green reagent and absorbance measurement at 650 nm. Assay 2) Macrophage TNF-α production. J774.1a macrophage cells were treated with 10 μg/mL of test compound dissolved in solvent (e.g. cyclodextran) for 40 minutes prior to the addition of 100 ng/mL LPS. Culture supernatants were collected after 2 hr and 5 hr for TNF-α determination by ELISA. Assay 3) Macrophage TNF-α NO assay. J774.1a macrophage cells were treated with 10 μg/ml of test compound dissolved in solvent for 40 minutes prior to the addition of LPS. Culture supernatants were collected after 24 hr. for determination of NO concentration using the Griess reagent. Assay 4) Stimulation of mast cells by FcεRI crosslinking. Mast cells were pre-loaded overnight in BMMC medium lacking IL-3 with 0.1 μg/ml anti-DNP IgE (SPE-7, Sigma, Oakville, Ont). For calcium flux measurements, cells were incubated with 2 μM fura 2-acetoxymethyl ester (Molecular Probes, Eugene, Oreg.) in Tyrode's buffer at 23° C. for 45 min. Cells were then washed and incubated in the presence of the test compound 30 min prior to stimulation with the indicated concentration of DNP-human serum albumin (DNP-HSA). Calcium influx was monitored by spectrofluorometry as described previously. For analysis of intracellular signaling, cells were pre-loaded with anti-DNP IgE as above, pre-treated with the test compound for 30 min at 37° C. and stimulated with 20 ng/ml DNP-HSA for 5 min. Total cell lysates were then prepared and analyzed for phospho-PKB, phospho-p38^MAPK, phospho-MAPK, Grb-2 (Cell Signalling, Mississauga, Ont) and SHIP^6 by immunoblot analysis. Assay 5) Mouse acute cutaneous anaphylaxis model. 6-8 week old CD1 mice (University of British Columbia Animal Facility, Vancouver, BC) were sensitized to the hapten DNP by cutaneous application of 25 μL of 0.5% dinitrofluorobenzene (DNFB) (Sigma, Oakville, Ont) in acetone to the shaved abdomen of mice for two consecutive days. 24 hrs later, test substances (dissolved in 10 μL of 1:2 DMSO:MeOH) were painted on the right ear while the left ear received vehicle control. 30 min after drug application, DNFB was applied to both ears to induce mast cell degranulation. A 6 mm punch was taken from the ear and immediately frozen on dry ice for subsequent determination of neutrophil myeloperoxidase (MPO) activity. Assay 6) Mouse endotoxemia model. 6-8 week old C57B16 mice (VCHRI Mammalian Model of Human Disease Core Facility, Vancouver, BC) were orally administered the test compound 30 min prior to an IP injection of 2 mg/kg of LPS (E. Coli serotype 0111:B4, Sigma, Oakville, Ont). Blood was drawn 2 hrs later for determination of plasma TNFα by ELISA. Assay 7) In vitro Mulitple Myeloma (MM) assay. The ability of SHIP activators to reduce tumor cell survival was assessed in MM cell lines treated with the test compound. The lines OPM1, OPM2, MM.1S and RPMI 8226 were plated at a density of 1×10^5 cells/mL in 200 μL of medium with various concentrations of the test compound, and viable cell numbers were determined on day 3 and day 5 by trypan blue exclusion. The lines RPMI 8226 and U266 were plated at a density of 1×10^6 cells/mL in 250 μL of medium with various concentrations of the test compound. At day 4, the medium of each culture was replaced by fresh medium containing the same concentration of test compound. […]

ΔC2 SHIP = target: T1, ΔC2 SHIP (Homo sapiens, UniProt Q92835, DEL725-863); experiment: SHIP enzyme assay with C2 domain deleted SHIP; type: biochemical; conditions: PI-3,4-P2 20 μM, Compound 100 3 μM, 30 μM IP4
T1 construct: His6; made in house; host or cells: mammalian expression vector pME18S
T1 sequence (Q92835 with tags, fused parts or gaps DEL725-863): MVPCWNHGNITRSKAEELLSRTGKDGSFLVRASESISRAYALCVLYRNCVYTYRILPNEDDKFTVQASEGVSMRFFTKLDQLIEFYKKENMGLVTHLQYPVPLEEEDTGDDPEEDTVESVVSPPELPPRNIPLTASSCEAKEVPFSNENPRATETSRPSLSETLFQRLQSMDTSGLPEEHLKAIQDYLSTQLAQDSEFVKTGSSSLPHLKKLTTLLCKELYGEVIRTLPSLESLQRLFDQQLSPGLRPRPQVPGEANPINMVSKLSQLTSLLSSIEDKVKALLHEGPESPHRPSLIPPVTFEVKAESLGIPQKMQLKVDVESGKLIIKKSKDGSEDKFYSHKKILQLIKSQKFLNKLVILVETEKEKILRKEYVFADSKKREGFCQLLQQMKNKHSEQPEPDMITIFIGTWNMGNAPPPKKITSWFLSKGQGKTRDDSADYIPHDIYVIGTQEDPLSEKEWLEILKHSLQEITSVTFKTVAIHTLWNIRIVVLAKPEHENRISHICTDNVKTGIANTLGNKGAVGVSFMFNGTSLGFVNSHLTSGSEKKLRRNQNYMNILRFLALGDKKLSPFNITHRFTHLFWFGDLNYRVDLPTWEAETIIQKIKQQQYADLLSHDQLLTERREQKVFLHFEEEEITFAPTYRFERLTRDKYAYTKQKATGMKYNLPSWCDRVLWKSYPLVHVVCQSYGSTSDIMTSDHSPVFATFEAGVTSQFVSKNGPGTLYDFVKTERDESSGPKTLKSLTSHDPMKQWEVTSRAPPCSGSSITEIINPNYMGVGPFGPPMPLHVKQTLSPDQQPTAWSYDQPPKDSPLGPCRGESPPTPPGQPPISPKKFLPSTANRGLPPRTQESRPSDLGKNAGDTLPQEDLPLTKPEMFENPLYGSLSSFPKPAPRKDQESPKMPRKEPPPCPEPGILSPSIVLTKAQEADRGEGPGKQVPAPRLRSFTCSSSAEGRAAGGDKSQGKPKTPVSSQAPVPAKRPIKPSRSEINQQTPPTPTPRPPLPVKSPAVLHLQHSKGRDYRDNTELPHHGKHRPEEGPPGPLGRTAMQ
Text: A His6 tagged SHIP ΔC2 domain deletion mutant (deleting residues 725 to 863) in the mammalian expression vector pME18S was generated by a standard PCR-based methodology. An N-terminal His6 C2 domain construct was also generated by PCR inserted into the pET28C bacterial expression vector using EcoRI and NdeI restriction sites.
The allosteric regulation of enzymes has remained under-appreciated primarily because allosteric effectors are not easy to find. The molecular mechanism by which Compound 100 activated SHIP was investigated, first by performing classical enzyme kinetic analysis of its phosphatase activity. Activity measurements were performed with substrate concentrations from 10-100 μM.
The SHIP protein contains a C2 domain located at the carboxyterminal end of its phosphatase domain. […] SHIP lacking its the C2 domain (ΔC2 SHIP) was prepared.

J774.1a macrophage cells [3] = experiment: Macrophage TNF-α production (Assay 2); type: cell-based; conditions: 10 μg/mL test compound, 100 ng/mL LPS, supernatants after 2 hr and 5 hr; further: key: a ‘+’ indicates a positive result for desired activity; a ‘−’ indicates a negative result for desired activity
Protocol: as §2

J774.1 macrophage cells = experiment: TNFα production in LPS-stimulated J774.1 macrophages (Example 9); type: cell-based; conditions: 2 ng/mL LPS
Protocol: An assay to determine the relative inhibition of TNFα production by Compound 103 compared to Compound 100 was conducted as follows.
J774.1 macrophage cells were plated at 2×10^5 cells/well in 24 well plates. The next day the media was changed and Compound 100, Compound 103 or cyclodextrin carrier were added to the wells at the indicated concentrations for 30 min prior to stimulation of the cells with 2 ng/mL lipopolysaccharide (LPS). LPS activation of macrophages leads to production of TNF alpha which can be detected in the culture supernatant and quantified by ELISA. The results are depicted in a graph in FIG. 1.

J774.1a macrophage cells [4] = experiment: Macrophage TNF-α NO assay (Assay 3), Griess reagent; type: cell-based; conditions: 10 μg/ml test compound, LPS, supernatants after 24 hr; further: key: a ‘+’ indicates a positive result for desired activity; a ‘−’ indicates a negative result for desired activity
Protocol: as §2

Compound: O=c1cc(N2CCOCC2)oc2c(-c3ccccc3)cccc12 [LY294002, reference compound]
- suppression of TNFα production [1]: ~40%
- suppression of TNFα production [2]: ~40%

- enhancement of ΔC2 SHIP activity (ΔC2 SHIP): could not be enhanced
Compound: CCCCCCCCCCCCCCCC(=O)OC[C@H](COP(=O)(O)O[C@H]1[C@H](O)[C@@H](O)[C@H](OP(=O)(O)O)[C@@H](OP(=O)(O)O)[C@H]1O)OC(=O)CCCCCCCCCCCCCCC [PI-3,4-P2, reference compound]
- activation of wild-type SHIP enzyme (SHIP enzyme): activated wild-type SHIP enzyme to a similar extent as Compound 100

Compound: Cc1cc(OC(=O)CN)cc2c1[C@]1(C)CCC3C(C)(C)CCC[C@]3(C)[C@H]1C2 (stereo partly shown) [Compound 103]
- Assay 2: Macrophage TNF-α production, desired activity (J774.1a macrophage cells [3]): +
- relative inhibition of TNFα production (J774.1 macrophage cells): Inhibits TNF Alpha Production Better than Compound 100
- Assay 3: Macrophage NO assay, desired activity (J774.1a macrophage cells [4]): +
